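96-well plates; 48 h exposure; 5 concentrations. Endpoints by linear interpolation between flanking doses. Not reached: highest tested concentration assigned. At the GI50, growth is halved.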 Active and inactive are the calls of the source. No stated cut-off is given here; in the data, active = GI50 up to about 1.1 µM and inactive = higher.
Assays:
Experiment in all cases: NCI tumour cell line growth inhibition, 48 h
SK-MEL-5 = system: SK-MEL-5
NCI-H23 = system: NCI-H23
SW-620 = system: SW-620
NCI-H460 = system: NCI-H460
NCI/ADR-RES = system: NCI/ADR-RES
NCI-H522 = system: NCI-H522
786-0 = system: 786-0
UACC-257 = system: UACC-257
HT-29 = system: HT-29
CAKI-1 = system: CAKI-1
COLO 205 = system: COLO 205
A498 = system: A498
NCI-H226 = system: NCI-H226
SK-MEL-28 = system: SK-MEL-28
PC-3 = system: PC-3
UO-31 = system: UO-31
U-251 = system: U-251
OVCAR-8 = system: OVCAR-8
SK-OV-3 = system: SK-OV-3
IGROV-1 = system: IGROV-1

Row | SMILES | GI50 (SK-MEL-5) | GI50 (NCI-H23) | GI50 (SW-620) | GI50 (NCI-H460) | GI50 (NCI/ADR-RES) | GI50 (NCI-H522) | GI50 (786-0) | GI50 (UACC-257) | GI50 (HT-29) | GI50 (CAKI-1) | GI50 (COLO 205) | GI50 (A498) | GI50 (NCI-H226) | GI50 (SK-MEL-28) | GI50 (PC-3) | GI50 (UO-31) | GI50 (U-251) | GI50 (OVCAR-8) | GI50 (SK-OV-3) | GI50 (IGROV-1)
1 | Cc1csc(NNC(=O)Nc2ccccc2)n1 | > 100 µM (inactive) | > 100 µM (inactive) | > 100 µM (inactive) | > 100 µM (inactive) | > 100 µM (inactive) | > 100 µM (inactive) | > 100 µM (inactive) | > 100 µM (inactive) | > 100 µM (inactive) | > 100 µM (inactive) | > 100 µM (inactive) | > 100 µM (inactive) | > 100 µM (inactive) | > 100 µM (inactive) | > 100 µM (inactive) | 45.7 µM (inactive) | > 100 µM (inactive) | > 100 µM (inactive) | > 100 µM (inactive) | > 100 µM (inactive)
2 | COc1ccc(/C=C(\Cl)c2ccc(OC)c(OC)c2)cc1OC | > 100 µM (inactive) | > 100 µM (inactive) | > 100 µM (inactive) | > 100 µM (inactive) | > 100 µM (inactive) | 22.9 µM (inactive) | > 100 µM (inactive) | > 100 µM (inactive) | > 100 µM (inactive) | > 100 µM (inactive) | > 100 µM (inactive) | > 43.5 µM (inactive) | > 100 µM (inactive) | > 100 µM (inactive) | > 100 µM (inactive) | > 100 µM (inactive) | > 100 µM (inactive) | > 100 µM (inactive) | > 100 µM (inactive) | > 100 µM (inactive)
3 | Cc1c(CNc2ccc(Cl)c(Cl)c2Cl)cnc2nc(N)nc(N)c12 | 0.263 µM (active) | 0.255 µM (active) | 0.179 µM (active) | 0.0615 µM (active) | > 100 µM (inactive) | 4.46 µM (inactive) | 0.0918 µM (active) | 0.236 µM (active) | 0.162 µM (active) | > 100 µM (inactive) | 5.35 µM (inactive) | > 100 µM (inactive) | 19.5 µM (inactive) | 5.33 µM (inactive) | 2.58 µM (inactive) | 2.44 µM (inactive) | 0.172 µM (active) | 0.053 µM (active) | > 35.6 µM (inactive) | 0.499 µM (active)

Source: ChEMBL document CHEMBL1201862, “PubChem BioAssay data set” (2004)
